Results taken from publication PMC10184157 (ACS Medicinal Chemistry Letters, 2023).

Tested on: athymic nude mice doubly xenografted with PC3 cells and 22Rv1 cells
Assay: Quantitative PET imaging in doubly xenografted mice
Format: in vivo
Conditions: PET VOI analysis, 50-70 min p.i., retro-orbital injection

O=C([O-])CN(CCN(CC(=O)[O-])Cc1cc(CCC(=O)NCCCCCC(=O)NCCCC[C@H](NC(=O)N[C@@H](CCC(=O)O)C(=O)O)C(=O)O)ccc1[O-])Cc1cc(CCC(=O)O)ccc1[O-].[68Ga+3].[OH3+] [[^68Ga]Ga-PSMA11, HO-Glu-CO-Lys(HBED-CC-Ahx)-OH]
uptake in 22Rv1 tumor: 3.22 % ID/g
